Experimental findings from BindingDB's records for doi:10.1021/acs.jmedchem.0c00262 (University of Leeds, 2020) are described below.

Assay [1] can be described thus: Modulation of GP6 in human platelets assessed as reduction in convulxin-induced platelet aggregation.
Assay [2] in a line: Modulation of GP6 in human platelets reduction in collagen-induced platelet aggregation preincubated for 20 mins followed by collagen stimulation.
Assay [3] is described as follows: Inhibition of GP6 in human whole blood assessed as protein-mediated platelet aggregation preincubated for 15 mins followed by collagen stimulation and measured for 10 mins by multiple electrode aggregometry.
The next assay deals with T1, Platelet glycoprotein VI (Homo sapiens, UniProt Q9HCN6).
T1 sequence (Q9HCN6 whole entry): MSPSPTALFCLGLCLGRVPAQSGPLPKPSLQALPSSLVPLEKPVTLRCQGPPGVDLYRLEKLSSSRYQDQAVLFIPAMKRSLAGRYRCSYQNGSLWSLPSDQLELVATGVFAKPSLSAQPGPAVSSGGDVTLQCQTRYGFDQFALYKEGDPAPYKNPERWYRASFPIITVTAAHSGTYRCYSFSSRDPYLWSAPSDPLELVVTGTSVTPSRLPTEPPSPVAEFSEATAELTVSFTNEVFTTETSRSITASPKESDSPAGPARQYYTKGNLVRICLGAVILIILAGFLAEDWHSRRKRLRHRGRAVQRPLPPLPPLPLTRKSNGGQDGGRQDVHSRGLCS
Put plainly: Inhibition of GP6 in human whole blood assessed as protein-mediated platelet aggregation preincubated for 15 mins followed by collagen stimulation and measured for 10 mins by multiple electrode aggregometry.

Assay [4] can be described thus: Antagonist activity at GP6 in human platelet assessed as reduction in CRP-induced platelet-aggregation preincubated for 10 mins followed by collagen stimulation by aggregometry.
Assay [5] is described as follows: Antagonist activity at GP6 in human platelet assessed as reduction in collagen-induced platelet-aggregation preincubated for 10 mins followed by collagen stimulation by aggregometry.

Usually IC50 stands for the concentration needed to halve the response being measured. `Cc1cccc(Nc2nc(N[C@@H]3CCCC[C@@H]3N)ncc2C(N)=O)c1`: the IC50 turned out to be 31 nM in assay [1] and 570 nM in assay [2].

As to `C=CC(=O)N1CCC([C@@H]2CCNc3c(C(N)=O)c(-c4ccc(Oc5ccccc5)cc4)nn32)CC1` (single isomer, unassigned) [US9447106, 27b (peak 2)], in assay [3], the IC50 is 510 nM.

Regarding `C/C=C/C(=O)N1CCC[C@H]1c1nc(-c2ccc(C(=O)Nc3ccccn3)cc2)c2c(N)nccn12` [ACP-196], the IC50 on Platelet glycoprotein VI came to 1210 nM.

On to `C=C1C(=O)[C@@]23[C@H](O)C[C@@H]4C(C)(C)C(=O)CC[C@@]4(C)[C@@H]2CC[C@@H]1[C@H]3O` [Glaucocalyxin A], for which the half-maximal inhibitory concentration (IC50) in assay [4] was 2 nM; in assay [5] it was 21 nM.

As for `C=CC(=O)N1CCC[C@@H](n2nc(-c3ccc(Oc4ccccc4)cc3)c3c(N)ncnc32)C1` [IBRUTINIB], the IC50 in assay [3] amounted to 120 nM.

Consider `CC#CC(=O)N1CC[C@@H](n2c(=O)n(-c3ccc(Oc4ccccc4)cc3)c3c(N)ncnc32)C1` [US9199997, 9], for which, in assay [3], the IC50 was 1200 nM.

On to `C=CC(=O)N1CCC(CNc2ncnc(N)c2-c2ccc(Oc3ccccc3)cc2)CC1` [US9580449, Example A39], for which the IC50 in assay [3] is 5840 nM.
